Data published in patent publication US5747461A, “Synergistic administration of cyclosporine and fructose diphosphate” (priority 1994, dated 1998).
“And” between values parts separate entries of the source, which are not always exact repeats. Identical values can stand only once.

Columns and labels:
[1] = tested on: Concanavalin A-stimulated T-lymphocytes; assay: Thymidine incorporation by Concanavalin A-stimulated T-lymphocytes; type: cell-based, rat; settings: ConA-stimulated
Procedure: The in vitro tests, and their results, are described in detail in Example 1. Briefly, T lymphocytes were obtained from rat spleens. The cells were then stimulated by Concanavalin A (ConA), a mitogen that specifically stimulates T lymphocyte replication, both in control samples and in samples that were also contacted with either FDP or cyclosporine at various concentrations. Cell replication was measured by assaying the uptake of thymidine which had been radiolabelled using tritium, a heavy isotope of hydrogen. Cell viability was measured using a dye, trypan blue; intact and viable cells can exclude trypan blue from their interiors, while damaged or dead cells cannot.
Sprague-Dawley rats (150-200 gm body weight) were euthanized by overdose of ketamine (injected intramuscularly, IM). Their spleens were removed under sterile conditions and placed in a plastic petri dish with Buffered Hanks Solution (BHS). The splenic parenchyma was torn apart with sterile needles and forceps. The solution with the splenic fragments was homogenized with a Teflon pestle in a glass tube. This allowed the cells to be expressed into the solution which was then filtered and placed over Ficoll-Hypaque and centrifuged at 1500 RPM for 20 minutes in order to separate mononuclear cells. The middle layer of cells (containing lymphocytes) was removed and centrifuged at 1000 RPM for 10 min. After removing the supernates, the remaining red blood cells were lysed with 0.83% NH4 Cl solution, and the cells were again centrifuged at 1000 RPM for 2-3 min. The supernate was poured off and the cells were washed twice with BHS and then resuspended in tissue culture media (RPMI-1640 with 10% fetal calf serum). The cells then were adjusted to final concentration of 5×10^6 cells/ml with RPMI-1640 and 10% fetal calf serum.
A tissue culture multi-well plate was used for incubation. All well filling was done under sterile conditions. […] The well volume capacity was 0.35 ml.
Six different dilutions (freshly prepared in sterile water solution from 10% FDP stock solutions) were used--1:10, 1:100, 1:250, 1:500, 1:1000 and 1:10000. […] A few wells were used to measure the stimulation index, and received ConA or RPMI without FDP or Cyclosporine. All combinations were run in triplicate. The wells were labeled and incubated with CO2 at 35° C. for 48 hours.
Each well then received 0.05 ml of tritiated (^3 H) thymidine (1 μCi/0.05 ml). Radiolabelled thymidine is taken up by proliferating lymphocytes, allowing them to be counted using a liquid scintillation counter. After 16 to 20 hours of incubation the samples were harvested onto glass filter paper strips using a multiple automated sample harvester. The paper was allowed to dry 4-5 hours. Paper from each well was placed in scintillation counting vials with 5 ml fluorane (scintillene). […] Significance was assessed by unpaired t-test.

[2] = tested on: cardiac allograft (Wistar-Furth donor heart in Lewis rat); assay: Intra-abdominal heart transplantation, series 1 (graft survival, rejection grade); type: in vivo
Description: Since unwanted T cell stimulation is known to be a primary factor in causing allograft rejection, the results of the in vitro studies discussed above, showing that FDP can suppress T cell stimulation, led to a series of in vivo tests using heart transplantations in rats. These tests are described in detail in Example 2. Briefly, laboratory rats from a strain known as Lewis rats were used as recipients, while rats from a different strain known as Wistar-Furth were used as heart donors.
In the recipient animals, the native heart was not cut out and replaced by a new heart. […] This model provides a good test to determine whether the body will reject the foreign tissue, yet it avoids the extraordinary difficulties that would arise if the animal's native heart were cut out.
In the first round of tests, four treatment groups and one control group were established. The control group received no FDP. The four treatment groups were injected intravenously with 350 mg/kg of FDP 15 minutes prior to surgery, at a dosage of 350 mg/kg (i.e., 350 mg of FDP per kilogram of body weight). The treatment animals also received a 90 minute infusion of FDP during the operation, at a rate of 10 mg/kg/min. In addition to these "perioperative FDP" injections, the four treatment groups also received:
The animals were examined daily for viability. […] When the transplanted heart reached a level of non-viability, a lethal dose of pentobarbital was given, and the heart was removed, examined microscopically, and graded for rejection using the Stanford grading scale.
If a transplanted heart stopped beating prior to three days postoperatively, that animal was dropped from the study. Rats that died within five days of the operation for unknown causes were also dropped from the study. These deaths were believed to be secondary to sepsis, rather than caused by tissue rejection. Also, one animal in Group 1 died from a suture fracture; this animal was also dropped from the study.
Male Wistar-Furth rats (WF;RT-1^u) and male Lewis rats (Lew;RT-1^1)were obtained from Harlan Sprague-Dawley Animal Laboratories. Lewis rats weighing (200-224 gm) were used as recipients. WF rats weighing (200-224 gm) were used as donors.
The Lewis rats were anesthetized with a mixture of ketamine (100 mg/kg) and xylocaine (5 mg/kg) by intraperitoneal injection (IP) 1 to 2 days prior to transplantation. At this time, PE-90 tubing was placed in the internal jugular vein and brought out through the posterior aspect of the neck. The rats were placed in individual cages to prevent dislodging of the catheter. No limits were placed on water or rat chow.
The transplantation procedure was a modified version of Ono and Lindsey's microvascular technique for intra-abdominal transplantation. WF rats were anesthetized with pentobarbital (50 mg/kg). The chest and abdomen were shaved and prepped with betadine and then placed on a thermostatically controlled operating platform. […] After three minutes, the sternum and anterior chest were separated from the diaphragm and lateral ribs with heavy scissors. The chest cavity was opened and the IVC was ligated using a 5-0 silk ligature. The aorta was then dissected out and cross clamped at the level of the innominate artery. Three cc of cold cardioplegia solution (4° C.) was injected into the aortic root with a 25 gauge needle. The aorta was divided below the clamp. The pulmonary artery was dissected free and divided at its bifurcation. […] The heart was then removed and placed in iced saline with heparin (2 units/ml).
Lewis rats were then anesthetized in a similar fashion. After shaving and prepping the abdomen, a mid-line incision was made. The IVC and the infrarenal aorta were mobilized together. A curved bulldog was then used to cross clamp the vessels. The anastomosis was sewn between the […] and IVC using a 9-0 Ethicon microsurgical suture. The aorta-aorta anastomosis was then performed in a similar end-side fashion. […]

rat cardiac allograft = assay: Intra-abdominal heart transplantation, series 2 (FDP alone and with cyclosporine); type: in vivo; settings: FDP pre and perioperative only (350 mg/kg IV, infusion 10 mg/kg IV for 90 min); n=5
Procedure: In a second series of in vivo tests, FDP alone and in conjunction with cyclosporine was tested for its ability to suppress allograft rejection and prolong survival of the transplanted heart. […] Therefore, these tests evaluated FDP in conjunction with sub-optimal doses of CSA.
In these tests, the same procedure as described above was used to transplant hearts into the abdomens of recipient animals. Unlike the earlier tests, the animals also received prophylactic antibiotic treatment following surgery, as well as daily application of Bacitracin ointment of the site of the venous catheter.
The surgical technique used in these tests was exactly the same as described in Example 2, except the animals in this series of tests received prophylactic antibiotic treatment following surgery, and daily application of Bacitracin ointment of the site of the venous catheter.
The animals were divided into the following 6 groups: […]

ex vivo stored hearts = assay: Ex vivo cold ischemic storage and reperfusion of hearts (Langendorf apparatus); design: species or system rat
Procedure: Hearts were harvested from ketamine-anesthetized Sprague Dawley rats (350-450 gm body weight). Prior to harvesting the hearts, 17 randomly chosen rats received an intravenous bolus injection of FDP 450 mg/kg (10%). The hearts were removed, the left atria and aorta were attached to a modified Langendorf apparatus within 3 min, and the hearts were perfused ex vivo for 15 min at 37° C. with Krebs-Henseleit solution to which 0.07 mg/ml of FDP had been added. Rats in the control group (n=21) received an equivalent volume saline injection prior to surgery, and the hearts were perfused for 15 min with Krebs-Henseleit solution containing no FDP. Heart rates, systolic and diastolic pressures, cardiac outputs, and coronary blood flow during this period were measured and recorded.
After the 15 minute perfusion period, the control hearts (n=21) were flushed with cardioplegic solution (Isolyte, K^+ 20 mEq/L). The FDP=treated hearts (n=17) were flushed with the same solution containing 1 mg/cc of FDP. The hearts were respectively placed in cold (4° C.) saline solution, with 0.9% NaCl or 0.9% NaCl containing 1 mg/ml FDP, and stored at 4° C. for 4 hours. After the 4 hour storage period was completed, the hearts were reperfused and warmed to 37° C. again. Seven hearts from each group were taken out of the Langendorf apparatus after 15 minutes and analyzed for myocardial ATP content. The remaining hearts (10 in the treatment group, and 14 in the control group) were measured in various ways (heartbeat rates, mean aortic and systolic pressures, and cardiac output) for 2 hours following the commencement of reperfusion.

[3] = tested on: ischemically stored livers; assay: Oxygen consumption after hypothermic ischemic storage, liver; design: species or system rat; settings: livers n=12; FDP 1 mg/ml in storage solution; storage 17.62±0.22 hours at 4° C.; measured at 36.4° C.
Procedure: (§1) Sprague Dawley rats (150-180 gm/body weight) were anesthetized with Ketamine 35 mg/kg. The liver, kidney and heart were excised and placed in 50 ml of a standard cardioplegia solution sold under the trademark ISOLYTE (which contained Na^+ -41 mEq/L, K^+ -16 mEq/L, Ca^++ -5 mEq/L, Mg^++ 3 mEq/L, Cl^- -40 mEq/L, acetate 24 mEq/L with 5% Dextrose), precooled to 4° C. To half of the storage containers, 1 mg/ml of 10% FDP was added; to the rest of the containers, a similar amount of glucose was added. The containers were placed on ice in a refrigerator. After storage for 16 to 20 hours, the organs were weighed and placed in a metabolic chamber for determination of oxygen consumption,using a Clark polarographic electrode. The total volume of the chamber was 10 ml and the composition of the medium was 8 ml phosphate buffered saline (PBS Dulbecco, Mg^++ and Ca^++ free) and 2 cc of Dextrose at a temperature of 36°±0.2° C. The organ was placed in the chamber and 100% oxygen was bubbled for 45 sec. The partial pressure of the dissolved oxygen was usually 480-560 mm Hg. Then the chamber was sealed hermetically, and O2 consumption by the organ was recorded on a strip chart recorder at a speed of 1 cm/min. Initial and final PO2 levels of medium in the chamber were measured on a Radiometer Blood Gas Analyzer Model ABL-4.

[4] = tested on: ischemically stored kidneys; assay: Oxygen consumption after hypothermic ischemic storage, kidney; design: species or system rat; settings: kidneys n=11; FDP 1 mg/ml in storage solution; 16 to 20 hours storage
Procedure: as §1

[5] = tested on: ischemically stored hearts; assay: Oxygen consumption after hypothermic ischemic storage, heart; design: species or system rat; settings: hearts n=4; FDP 1 mg/ml in storage solution; 16 to 20 hours storage
Procedure: as §1

[6] = Group 1 perioperative FDP, Stanford grading scale

## O=C(COP(=O)(O)O)[C@@H](O)[C@H](O)[C@H](O)COP(=O)(O)O [FDP, fructose-1,6-diphosphate]
[1]; FDP 1:10 dilution of 10% stock
  Thymidine incorporation: 136 counts per 2 minute period
[1]; FDP 1:100 dilution of 10% stock
  Thymidine incorporation: 1175 counts per 2 minute period
[1]; FDP 1:250 dilution of 10% stock
  Thymidine incorporation: 24818 counts per 2 minute period
[1]; FDP 1:500 dilution of 10% stock
  Thymidine incorporation: 52481 counts per 2 minute period
[1]; FDP 1:1000 dilution of 10% stock
  Thymidine incorporation: 62518 counts per 2 minute period
[1]; FDP 1:10000 dilution of 10% stock, mean of 13 experiments
  Thymidine incorporation: 89032 counts per 2 minute period
[2]; Group 1: perioperative FDP (350 mg/kg IV + 10 mg/kg/min 90 min), no supplemental injections
  Mean Survival Time MST ± SE (graft): 13.5 days and 13.5 ± 1.4101 days
[2]; [6]
  Rejection Grades: number of hearts graded Moderate: 1
  Rejection Grades: number of hearts graded Severe/Advanced: 8
[2]; Group 1 perioperative FDP, Stanford grading scale, N 11, 1 heart not evaluated
  Rejection Grades: number of hearts graded Mild: 1
[2]; Group 2: perioperative FDP + 350 mg/kg every 12 hours (bid), 350 mg/kg
  Mean Survival Time MST ± SE (graft): 8.9 days and 8.9 ± 0.5154 days
[2]; Group 2 FDP bid, N 8
  Rejection Grades: number of hearts graded Mild: 1
  Rejection Grades: number of hearts graded Moderate: 1
  Rejection Grades: number of hearts graded Severe/Advanced: 6
[2]; Group 3: perioperative FDP + 350 mg/kg every 8 hours (tid), 350 mg/kg
  Mean Survival Time MST ± SE (graft): 10 days and 10.0 ± 0.5345 days
[2]; Group 3 FDP tid, N 8
  Rejection Grades: number of hearts graded Moderate: 1
  Rejection Grades: number of hearts graded Severe/Advanced: 7
[2]; Group 4: perioperative FDP + 350 mg/kg every 6 hours (qid), 350 mg/kg
  Mean Survival Time MST ± SE (graft): 9.6 days and 9.4 ± 0.8004 days
[2]; Group 4 FDP qid, N 8
  Rejection Grades: number of hearts graded Severe/Advanced: 8
[2]; Group I perioperative FDP, Stanford grading scale
  rejection grades (span in the group): mild to severe/advanced
[2]; Group II FDP every 12 hours
  rejection grades (span in the group): mild to severe/advanced
[2]; Group III FDP every 8 hours
  rejection grades (span in the group): moderate to severe/advanced
[2]; Group IV FDP every 6 hours
  rejection grades (span in the group): severe/advanced
Rat cardiac allograft
  MST ± SEM (cardiac allograft survival): 11.4 Days and 11.4 ± 0.74 Days
Ex vivo stored hearts; after 15 min of reperfusion, FIG. 5, p<0.01
  myocardial ATP content vs control group: higher
Ex vivo stored hearts; after 1 hour and 30 min of reperfusion following 4 h storage at 4° C., n=10, controls 5 of 14
  hearts still showing a heartbeat: all
Ex vivo stored hearts; after 4 h cold storage, FIG. 1
  post-storage heartbeat rate vs control group: significantly higher
Ex vivo stored hearts; after 4 h cold storage, FIG. 2
  peak systolic aortic pressures vs control group: significantly higher
Ex vivo stored hearts; after 4 h cold storage, FIG. 3
  mean pressures vs control group: significantly higher
Ex vivo stored hearts; after 4 h cold storage, FIG. 4
  cardiac output rates vs control group: significantly higher
[3]
  oxygen consumption after ischemic storage: 76.7±4.4 O2 mmHg/min/gm
[4]
  post-storage O2 consumption: 74.15±4.8 mmHg O2 /min/gm
[5]
  post-storage O2 consumption: 68.4±3.14 mmHg O2 /min/gm
